Laboratory results as given in PMC12371361 (Frontiers in Immunology, 2025).
Residues, ends and D or L forms follow the SMILES beside them.

Experiments:
HLA-A*01:01 = HLA-A*01:01 (Homo sapiens, UniProt P04439, A114D/A174V/A182V/D101N/D185E/E176A/E190D/L180R/Q94H/R68K/S129P/T187R/V100A/V91M/W191G); assay: biochemical
Experimental: (§1) The affinity of peptide/HLA binding was determined as described before ([21], [22]). Briefly, biotinylated HLA Class I heavy chains were denatured and diluted into refolding buffer containing β-mercaptoethanol and varying concentrations of the test/control peptides. The mixtures were incubated with agitation at room temperature for 20–24 hours to enable peptide/HLA complex formation. The solutions containing the complexes were transferred to streptavidin plates and incubated for 30 minutes. Plates were then developed using ELISA. Absorbance measured at 450 nm was graphed against the varying concentrations of the test peptide used. The affinity of peptide/HLA binding was determined by calculating the EC50, defined as the peptide concentration resulting in half saturation. Peptides with an EC50 under 100 nM were classified as high affinity binders.

HLA-B*35:01 = HLA-B*35:01 (Homo sapiens, UniProt P01889, A329T/A93T/A95T/C349S/D201E/D98Y/E176V/E187L/E204Q/E69T/I218V/K202T/L119I/Q94N/R155S/R180L/S121R/S35A/S48A/T118I/V127L/V306I/V36M/Y140S/Y91F); assay: biochemical
Experimental: as §1

HLA-B*27:05 = HLA-B*27:05 (Homo sapiens, UniProt P01889, D138H/D201E/E176V/E204Q/G107R/H137Y/K202T/N104T/N87E/Q56L/Q94K/R106L/R155S/R180L/S101D/S121N/S48T/Y140D/Y33H/Y91C); assay: Peptide/HLA binding affinity assay; conditions: EC50 = peptide concentration at half saturation; HLA heavy chain refolded with varying peptide conc., 20–24 h, room temperature, ELISA 450 nm; <100 nM = high affinity
Excerpt: Plates were then developed using ELISA.

HLA-A*02:01 = HLA-A*02:01 (Homo sapiens, UniProt P04439, D140Y/D185E/D98H/E176V/E277Q/G131W/G231S/I119V/I121R/I166T/I218V/L300P/L318F/N151K/N90K/P208A/P217A/Q86G/Q94H/R138H/R169H/T345S); assay: biochemical
Experimental: as §1

[1] = tested on: AAV9 capsid-specific CD8 T cells in healthy donor PBMCs; assay: Peptide deconvolution FluoroSpot, CD4-depleted PBMCs expanded with Class I MAPPs pool (IFN-γ); format: cell-based, human; conditions: for Total no. of responders: 24 healthy donors, CD4-depleted PBMCs expanded 10 days with Class I MAPPs pool, matrix pools 1 µg per peptide/mL, then individual peptide 2 µg/mL, ~24 h, positive = SI ≥1.4; for T cell response in tested donors / donors with the predicted binding allele (in words) / % response in donors with allele(s): CD4-depleted PBMCs expanded with Class I MAPPs pool; for T cell response in tested donors / donors with the predicted binding allele (in words): IFN-γ FluoroSpot; for % response in donors with allele(s): responders among cohort donors expressing the peptide's predicted HLA binding allele(s)
Experimental: For the identification of immunodominant CD8 T cell epitopes, the 41 HLA Class I MAPPs peptides were arranged in a matrix of 13 pools, each containing 6–7 peptides ( Supplementary Table 4 ). Per the matrix, each matrix pool was constructed by combining the peptides listed in each column or each row ([16]). Peptides present at the intersection of responding matrix pools were shortlisted and tested individually. All matrix pools were dissolved in 100% DMSO and tested at 1 µg per peptide/mL. For individual testing, peptides were dissolved in 100% DMSO and tested at 2 µg/mL. Matrix pools and individual peptides were synthesized by GenScript.
Frozen PBMCs were thawed and resuspended in AIM V+ 5% SR at 1X10^6 cells/mL. Cells were stimulated with test peptide pools (1 µg per peptide/mL) and expanded in vitro for 10 days as described previously ([17]). On Days 4 and 7, cells were supplemented with a cytokine cocktail containing IL-2 (R&D Systems, 10 units/mL), IL-7 (R&D Systems, 10 ng/mL), and IL-15 (PeproTech, 10 ng/mL). On Day 10, cells were harvested, washed, and restimulated on precoated IFN-γ FluoroSpot plates (MabTech) in triplicates (125,000 cells/well). Peptide pools (1 µg per peptide/mL) or individual peptides (2 µg/mL, for deconvolution studies) were used for restimulation. Anti-CD3 antibody (MabTech, 100 ng/mL) and DMSO were used as positive and negative controls respectively. Plates were incubated at 37 degrees Celsius for ~ 24 hours and processed as described in the previous section.
For experiments involving T cell depletion, CD4 T cells were depleted via magnetic separation using human CD4 Microbeads (Miltenyi Biotec) and an AutoMACS separator (Miltenyi Biotec) according to manufacturer’s instructions. Depleted cells were washed with MACS buffer prior to seeding on culture plates.
For FluoroSpot assays, results were expressed as Spot Forming Units (SFU), calculated as the spot count per million PBMCs. The Stimulation Index (SI) was calculated as the average SFU in test wells/average SFU in DMSO control wells. For assays with fresh PBMCs, an SI of 2 or higher with a minimum of 50 SFU was counted as a positive IFN-γ/TNF-α response. For assays with expanded PBMCs, an SI of 1.4 or higher was set as the cutoff for a positive IFN-γ response. Predicted HLA binding alleles for each peptide were determined using MHCMotifDecon 1.0 as previously described ([13], [14], [23]). Predicted binding affinities for identified epitopes were determined using NetMHC 4.0 ([24]). Data tables and heatmaps were created using Excel. Data analysis and graphical representations were performed on Graph Pad Prism 10.
To identify the immunodominant CD8 T cell epitopes within the HLA Class I MAPPs peptides, we utilized a system of matrix pools which facilitates rapid mapping of immunodominant epitopes when investigating a large number of peptides. The 41 HLA Class I MAPPs peptides were arranged into 13 matrix pools (MPs), each containing 6–7 peptides ( Supplementary Table 4 ). The matrix arrangement allows each Class I peptide to feature in two MPs, and a restimulation response to both MPs containing a specific peptide identifies putative immunodominant peptides that can be verified on an individual basis. Peptide deconvolution was performed on a cohort of 24 healthy donors. PBMCs were depleted of CD4 T cells and expanded as described before with the Class I MAPPs pool (41 peptides). Expanded PBMCs were restimulated on FluoroSpot assays with the 13 MPs.

HLA-B*40:01 = HLA-B*40:01 (Homo sapiens, UniProt P01889, A65T/A93T/A95T/D138N/D98Y/E176V/E69K/N87E/Q56L/Q94N/R180L/S121R/S35A/S48T/T167S/V36M/W171L/Y33H/Y91S); assay: biochemical
Experimental: as §1

HLA-C*07:01 = HLA-C*07:01 (Homo sapiens, UniProt P10321, K90N/S123Y); assay: biochemical
Experimental: as §1

HLA-A*68:01 = HLA-A*68:01 (Homo sapiens, UniProt P04439, A269V/D185E/E176V/E277Q/E87N/F33Y/G231S/I121M/I166T/I218V/L180W/L300P/L318F/N151K/P208A/P217A/Q86R/R169H/T345S); assay: biochemical
Experimental: as §1

HLA-C*03:03 = HLA-C*03:03 (Homo sapiens, UniProt P10321, A176E/A330V/A97T/C25G/C350S/D114A/D33Y/E197K/G115R/L119I/L127V/L171W/L218V/M285V/M309V/M331V/P208H/Q277E/Q291P/R243W/R45H/S123Y/S140Y/S297R/S48A/T118I/T187L/T329A/T363A/V319A); conditions: C*03:03 measured as substitute for C*03:04; EC50 = peptide concentration at half saturation; refolding 20–24 h, room temperature, ELISA 450 nm; <100 nM = high affinity
Experimental: as §1

CC[C@H](C)[C@H](NC(=O)[C@@H]1CCCN1C(=O)[C@H](CCCNC(=N)N)NC(=O)[C@@H]1CCCN1C(=O)[C@H](CCC(=O)O)NC(=O)[C@H](CO)NC(=O)[C@@H](N)Cc1ccc(O)cc1)C(=O)NCC(=O)N[C@H](C(=O)N[C@@H](CCCNC(=N)N)C(=O)N[C@@H](Cc1ccc(O)cc1)C(=O)O)[C@@H](C)O [Peptide 41] (H-YSEPRPIGTRY-OH)
EC50 (HLA-A*01:01): 16.3 nM

CC(C)C[C@H](NC(=O)[C@H](Cc1c[nH]cn1)NC(=O)[C@H](CC(N)=O)NC(=O)[C@H](CC(N)=O)NC(=O)[C@H](Cc1ccc(O)cc1)NC(=O)[C@@H](NC(=O)[C@@H]1CCCN1C(=O)[C@@H](N)CC(C)C)[C@@H](C)O)C(=O)N[C@@H](Cc1ccc(O)cc1)C(=O)O [Peptide 11] (H-LPTYNNHLY-OH)
EC50 (HLA-B*35:01): 96.7 nM

CC(C)C[C@H](N)C(=O)N[C@@H](CCCNC(=N)N)C(=O)N[C@H](C(=O)NCC(=O)N[C@@H](CC(N)=O)C(=O)N[C@@H](CC(N)=O)C(=O)N[C@@H](Cc1ccccc1)C(=O)N[C@@H](CCC(N)=O)C(=O)N[C@@H](Cc1ccccc1)C(=O)O)[C@@H](C)O [Peptide 20] (H-LRTGNNFQF-OH)
EC50 (HLA-B*27:05): 122 nM

CC(C)[C@H](NC(=O)[C@H](CC(N)=O)NC(=O)[C@H](CCC(=O)O)NC(=O)[C@H](Cc1ccccc1)NC(=O)[C@H](CCC(=O)O)NC(=O)[C@H](Cc1ccc(O)cc1)NC(=O)[C@H](CO)NC(=O)[C@H](Cc1ccccc1)NC(=O)[C@H](CCC(N)=O)NC(=O)[C@@H](N)Cc1ccccc1)C(=O)O [Peptide 21] (H-FQFSYEFENV-OH)
EC50 (HLA-A*02:01): 0.6 nM

QPAKKRLNF [Peptide 7, predicted allele B*07:02]
Total no. of responders ([1]; IFN-γ): 0 | T cell response in tested donors / donors with the predicted binding allele (in words) [1]: did not elicit a response | % response in donors with allele(s) ([1]; IFN-γ, SI ≥1.4): 0/6 (0%)

CSCC[C@H](NC(=O)[C@H](CCC(N)=O)NC(=O)[C@H](CO)NC(=O)[C@@H]1CCCN1C(=O)[C@H](Cc1ccccc1)NC(=O)[C@H](Cc1ccc(O)cc1)NC(=O)[C@H](CCC(=O)O)NC(=O)[C@@H](N)CC(C)C)C(=O)N[C@@H](CC(C)C)C(=O)O [Peptide 19] (H-LEYFPSQML-OH)
EC50 (HLA-B*40:01): 0.1 nM

CC[C@H](C)[C@H](NC(=O)[C@@H](N)CC(C)C)C(=O)N[C@@H](CC(=O)O)C(=O)N[C@@H](CCC(N)=O)C(=O)N[C@@H](Cc1ccc(O)cc1)C(=O)N[C@@H](CC(C)C)C(=O)N[C@@H](Cc1ccc(O)cc1)C(=O)N[C@@H](Cc1ccc(O)cc1)C(=O)N[C@@H](CC(C)C)C(=O)O [Peptide 24] (H-LIDQYLYYL-OH)
EC50 (HLA-A*02:01): 0.6 nM

TDSDYQLPYVL [Peptide 13]
T cell response in tested donors / donors with the predicted binding allele (in words) [1]: elicited a T cell response | Responding donors ([1]; peptide deconvolution in 24 healthy donors, '-' = no responding donor, IFN-γ, SI ≥1.4): Donor # 442

CC(C)C[C@H](NC(=O)[C@H](C)NC(=O)[C@H](Cc1c[nH]c2ccccc12)NC(=O)[C@@H](NC(=O)[C@H](CCCNC(=N)N)NC(=O)[C@@H](N)[C@@H](C)O)[C@@H](C)O)C(=O)N1CCC[C@H]1C(=O)N[C@H](C(=O)N[C@@H](Cc1ccc(O)cc1)C(=O)O)[C@@H](C)O [Peptide 10] (H-TRTWALPTY-OH)
EC50 (HLA-C*07:01): > 10000 nM | EC50 (HLA-B*27:05): 120 nM

CSCC[C@H](NC(=O)[C@H](CC(N)=O)NC(=O)[C@H](CO)NC(=O)[C@@H]1CCCN1C(=O)CNC(=O)[C@H](C)NC(=O)[C@@H](NC(=O)[C@@H](N)CO)C(C)C)C(=O)N[C@@H](C)C(=O)N[C@H](C(=O)N[C@@H](CCC(N)=O)C(=O)NCC(=O)N[C@@H](CCCNC(=N)N)C(=O)O)C(C)C [Peptide 26] (H-SVAGPSNMAVQGR-OH)
EC50 (HLA-A*68:01): 1.9 nM | Binding affinity (nM), C*03:03 (HLA-C*03:03): Non-binder

SQAVGRSSF [Peptide 17, predicted allele B*15:01]
Total no. of responders ([1]; IFN-γ): 0 | T cell response in tested donors / donors with the predicted binding allele (in words) [1]: did not elicit a response | % response in donors with allele(s) ([1]; IFN-γ, SI ≥1.4): 0/2 (0%)

CSCC[C@H](NC(=O)[C@H](CC(N)=O)NC(=O)[C@H](CO)NC(=O)[C@@H]1CCCN1C(=O)CNC(=O)[C@H](C)NC(=O)[C@@H](N)C(C)C)C(=O)N[C@@H](C)C(=O)N[C@H](C(=O)O)C(C)C [Peptide 27] (H-VAGPSNMAV-OH)
Binding affinity (nM), A*68:01 (HLA-A*68:01; EC50 = peptide concentration at half saturation, HLA heavy chain refolded with varying peptide conc., 20–24 h, room temperature, ELISA 450 nm, <100 nM = high affinity): Non-binder

CC(C)[C@H](NC(=O)[C@H](C)NC(=O)[C@H](CCCNC(=N)N)NC(=O)CN)C(=O)N[C@@H](Cc1ccccc1)C(=O)N[C@@H](CCC(N)=O)C(=O)N[C@@H](C)C(=O)N[C@@H](CCCCN)C(=O)N[C@@H](CCCCN)C(=O)O [Peptide 5] (H-GRAVFQAKK-OH)
EC50 (HLA-B*27:05): 83.9 nM
